After the bases stand the sugars from the 5' end (letter, count) and the backbone: PS all phosphorothioate, else s phosphorothioate and o phosphodiester by linkage. Methylation of C is not given here. l = locked nucleic acid (LNA); d = 2'-deoxy (DNA)
Target: SNHG14
Conditions: ASO

Row | Sequence | target mRNA inhibition (Human Neuronal Cell, 7.5 µM) [%] | target mRNA inhibition (Human Neuronal Cell, 0.2 µM) [%] | target mRNA inhibition (Human Neuronal Cell, 1 µM) [%] | further results
1 | AAAATCTCAACTACCATTTT (sugars ldllddldddddddllddll, PS) | 5 | – | – | –
2 | TACTCTGCAATACACC (sugars l1 d3 l1 d7 l4, PS) | 63 | – | – | –
3 | TTTTTTTCTTACTATCTTCA (sugars l1 d14 l1 d2 l2, PS) | 17 | – | – | –
4 | ATTTCATTAAGTCACC (sugars l2 d10 l4, PS) | – | 46 | 59 | –
5 | GTTTATACCCTTTCCAAT (sugars ldddlddddddddldlll, PS) | 56 | – | – | –
6 | CCTACATCTCATACTTGC (sugars l2 d13 l3, PS) | – | – | – | target mRNA inhibition (Mouse Primary Neuronal Cell, 0.005 µM): 96.8%
7 | TACACTTAATTATACTTCCA (sugars lddldllddddddddlddll, PS) | 56 | – | – | –
8 | TCTTTCCATTTATTTCCAT (sugars l2 d3 l1 d11 l2, PS) | 54 | – | – | –
9 | CGAATCTTGACATACAGG (sugars l3 d12 l3, PS) | – | 8 | 19 | target mRNA inhibition (Human Neuronal Cell, 5 µM): 14%
10 | TCCATTTATTTCCATTTAT (sugars llddlddddddddldldll, PS) | 40 | – | – | –
11 | TTCTGTATACACCATCC (sugars l3 d12 l2, PS) | 58 | – | – | –
12 | AATTATTTATACACCATCAT (sugars llllddldddddddldddll, PS) | 61 | – | – | –
13 | ATCTGAATCAAACCTT (sugars l2 d10 l4, PS) | – | 45 | 45 | –
14 | ATCTTTCCATTTATTTCCAT (sugars lddlddddddddddddldll, PS) | 40 | – | – | –
15 | TAAGCTCCATATTTAA (sugars l3 d10 l3, PS) | – | 3 | 12 | –
16 | CTCTAATCCTATTCCA (sugars l3 d10 l3, PS) | – | 50 | 58 | –
17 | TTATAGCCATTCTATCT (sugars llddlddddddldldll, PS) | 5 | – | – | –
18 | TAAAATTATTTATACACCAT (sugars lldddldddddddldlllll, PS) | 46 | – | – | –

Row | Sequence | target mRNA inhibition (Human Neuronal Cell, 7.5 µM) [%] | target mRNA inhibition (Human Neuronal Cell, 0.2 µM) [%] | target mRNA inhibition (Human Neuronal Cell, 1 µM) [%] | further results
19 | CTATTCAATAAACTAAACA (sugars l4 d13 l2, PS) | – | -6 | -9 | –
20 | TTCTGTATACACCATCC (sugars ldddlddddddddldll, PS) | 65 | – | – | –
21 | TTTATCAATATCTTCTCACT (sugars lddldldddddddddddlll, PS) | 57 | – | – | –
22 | TTTCAGCTTTTAACCAGAGT (sugars l2 d15 l3, PS) | 67 | – | – | –
23 | CCATTATTTCTTAAATA (sugars l4 d11 l2, PS) | – | -8 | 8 | –
24 | TAAAATTATTTATACACCA (sugars lddlllddddddldlllll, PS) | 30 | – | – | –
25 | TTTACACTTAATTATACTTC (sugars lllddldddddddllldlll, PS) | 22 | – | – | –
26 | AAATCTCAACTACCATTTTT (sugars lldlldldddddddldddll, PS) | 53 | – | – | –
27 | TTATAGCCATTCTATCT (sugars ldlddddddddlddlll, PS) | 57 | – | – | –
28 | ATATTGATTCAATTCCC (sugars l1 d3 l1 d8 l4, PS) | 67 | – | – | –
29 | GAAAATCTCAACTACCATT (sugars l3 d1 l1 d10 l4, PS) | 57 | – | – | –
30 | GACCTCAATACTCTAC (sugars l4 d10 l2, PS) | – | 37 | 44 | –
31 | ATATAAGCTTACCTCA (sugars l4 d10 l2, PS) | – | 56 | 68 | –
32 | TTTCCTATATTCTCTTA (sugars l4 d11 l2, PS) | – | 56 | 64 | –
33 | ACCCATTTCTAACATT (sugars l4 d10 l2, PS) | – | 29 | 40 | –
34 | CTGTTTATACCCTTTCCA (sugars l1 d12 l1 d2 l2, PS) | 58 | – | – | –
35 | TCTGTATACACCATCCCA (sugars lddddlddddddddldll, PS) | 61 | – | – | –
36 | CTTCACACCTATTATATA (sugars l2 d12 l4, PS) | – | 7 | 32 | –
